pIC50: −log10 of the molar value. The source made the active and inactive calls. The calls are words filed in the database; no cut-off is given here. Non-standard residues stand in square brackets, D forms with d. Residues, ends and D or L forms follow the SMILES beside them. pT = C[C@@H](OP(=O)(O)O)[C@H](N)C(=O)O
Tests used:
[1] = target: T1, Serine/threonine-protein kinase PLK1 (Homo sapiens, UniProt P53350); experiment: Displacement of 5-carboxyfluorescein-labeled PBD-binding peptide from PLk1 PBD (unknown origin) expressed in bacterial expression system incubated for 10 mins by fluorescence polarization assay
T1 sequence (P53350 whole entry): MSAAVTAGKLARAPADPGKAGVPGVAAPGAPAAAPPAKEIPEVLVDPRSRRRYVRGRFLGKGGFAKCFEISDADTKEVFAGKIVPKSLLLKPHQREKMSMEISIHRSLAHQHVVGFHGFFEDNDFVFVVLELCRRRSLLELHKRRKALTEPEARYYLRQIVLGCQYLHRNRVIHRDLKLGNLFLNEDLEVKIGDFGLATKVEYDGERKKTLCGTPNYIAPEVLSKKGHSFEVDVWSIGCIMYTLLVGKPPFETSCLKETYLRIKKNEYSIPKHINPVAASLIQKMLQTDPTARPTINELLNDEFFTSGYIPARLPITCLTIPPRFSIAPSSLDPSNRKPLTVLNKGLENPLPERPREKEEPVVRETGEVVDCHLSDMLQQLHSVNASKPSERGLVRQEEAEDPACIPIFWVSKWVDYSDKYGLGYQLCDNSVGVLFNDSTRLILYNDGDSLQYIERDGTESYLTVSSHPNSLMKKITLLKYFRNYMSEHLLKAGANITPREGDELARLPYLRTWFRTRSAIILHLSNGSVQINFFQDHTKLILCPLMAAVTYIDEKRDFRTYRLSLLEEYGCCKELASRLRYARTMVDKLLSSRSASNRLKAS

HeLa [2] = experiment: Induction of cell cycle arrest in human Hela cells assessed as number of cells at G0/G1 phase at 200 uM after 24 hrs by flow cytometry analysis (reference value: 74.14%); type: functional
HeLa [3] = experiment: Induction of apoptosis in human Hela cells assessed as dead cells at 200 uM after 24 hrs by fluorescence microscope analysis relative to control; type: functional
Homo sapiens = species: Homo sapiens; experiment: Selectivity ratio for binding affinity for PLK2 PBD (unknown origin) to binding affinity for PLK1 PBD (unknown origin)
[4] = Ratio of drug uptake in BALB/c nu/nu mouse xenografted with Hela cells tumor to muscle using Cy5-conjugated compound at 5 mg/kg, iv measured after 48 hrs by fluorescence microscopic analysis; type: ADME, organism-based; settings: in vivo
[5] = target: T1, Serine/threonine-protein kinase PLK1; experiment: Inhibition PLK1 localization in mitotic kinetochore in human Hela cells at 200 uM after 18 hrs by immunofluorescence analysis relative to control; type: cell-based
HeLa [6] = experiment: Induction of apoptosis in human Hela cells assessed as dead cells at 200 uM after 48 hrs by fluorescence microscope analysis relative to control; type: functional
[7] = Volume of distribution at steady state in ICR mouse at 5 mg/kg, iv measured upto 24 hrs by LC/MS/MS analysis; type: ADME, organism-based; settings: in vivo
HeLa [8] = experiment: Induction of cell cycle arrest in human Hela cells assessed as number of cells at S phase at 200 uM after 24 hrs by flow cytometry analysis (reference value: 7.86%); type: functional
[9] = AUC(infinity) in ICR mouse at 5 mg/kg, iv measured upto 24 hrs by LC/MS/MS analysis; type: ADME, organism-based; design: route intravenous, dose 5 mg/kg, time <=24; settings: in vivo
[10] = Ratio of drug uptake in BALB/c nu/nu mouse xenografted with Hela cells tumor to muscle using Cy5-conjugated compound at 5 mg/kg, iv measured after 24 hrs by fluorescence microscopic analysis; type: ADME, organism-based; settings: in vivo
[11] = AUClast in ICR mouse at 5 mg/kg, iv measured upto 24 hrs by LC/MS/MS analysis; type: ADME, organism-based; design: route intravenous, dose 5 mg/kg, time <=24; settings: in vivo
HeLa [12] = experiment: Induction of cell cycle arrest in human Hela cells assessed as number of cells at G2/M phase at 200 uM after 24 hrs by flow cytometry analysis (reference value: 18%); type: functional
[13] = Toxicity in Balb/c nu nu mouse xenografted with human Hela cells assessed as changed in body weight at 5 mg/kg, iv for 29 days; type: organism-based; settings: in vivo, 696 h, time 29 day
[14] = Drug uptake in human Hela cells using Cy5-conjugated compound at 200 uM after 18 hrs by fluorescence microscopic analysis; type: ADME, cell-based
HeLa [15] = experiment: Antitumor activity against human Hela cells xenografted in Balb/c nu nu mouse assessed as decrease in tumor size at 5 mg/kg, iv for 29 days; type: functional, organism-based; settings: time 29.0 day
[16] = Drug uptake in muscle of BALB/c nu/nu mouse xenografted with Hela cells using Cy5-conjugated compound at 5 mg/kg, iv measured after 48 hrs by fluorescence microscopic analysis; type: ADME, organism-based, Muscle tissue; settings: in vivo
[17] = target: Serine/threonine-protein kinase PLK3 (Homo sapiens, UniProt Q9H4B4); experiment: Displacement of 5-carboxyfluorescein-labeled PBD-binding peptide from PLk3 PBD (unknown origin) expressed in bacterial expression system incubated for 10 mins by fluorescence polarization assay
Chain of Serine/threonine-protein kinase PLK3 (Q9H4B4 whole entry): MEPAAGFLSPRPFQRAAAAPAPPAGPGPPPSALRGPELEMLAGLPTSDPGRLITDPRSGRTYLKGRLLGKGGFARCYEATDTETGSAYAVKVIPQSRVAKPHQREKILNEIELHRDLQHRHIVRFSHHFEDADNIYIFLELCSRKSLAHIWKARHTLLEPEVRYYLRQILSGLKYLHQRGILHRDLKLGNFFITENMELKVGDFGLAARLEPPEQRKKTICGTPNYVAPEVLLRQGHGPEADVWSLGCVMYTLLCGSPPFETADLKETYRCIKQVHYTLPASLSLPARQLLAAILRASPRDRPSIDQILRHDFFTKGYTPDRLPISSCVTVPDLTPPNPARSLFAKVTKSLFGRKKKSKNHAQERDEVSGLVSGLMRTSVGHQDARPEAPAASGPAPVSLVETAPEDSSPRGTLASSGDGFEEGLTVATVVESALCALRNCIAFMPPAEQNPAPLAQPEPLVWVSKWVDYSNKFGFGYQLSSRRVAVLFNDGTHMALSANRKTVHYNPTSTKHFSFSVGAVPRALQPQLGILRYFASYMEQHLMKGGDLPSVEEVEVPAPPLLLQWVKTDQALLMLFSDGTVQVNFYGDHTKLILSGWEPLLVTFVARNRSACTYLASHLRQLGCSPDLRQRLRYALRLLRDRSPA

[18] = target: T1, Serine/threonine-protein kinase PLK1; experiment: Inhibition of PLK1 PBD interaction with p-Cdc25c in human Hela cells assessed as decrease in phosphorylated Cdc25c co-preciptated with GST-PLK1 PBD by pull down assay; type: cell-based
[19] = Mean residence time in ICR mouse at 5 mg/kg, iv measured upto 24 hrs by LC/MS/MS analysis; type: ADME, organism-based; settings: in vivo
[20] = Half life in ICR mouse at 5 mg/kg, iv measured upto 24 hrs by LC/MS/MS analysis; type: ADME, organism-based; settings: in vivo
[21] = Ratio of drug uptake in BALB/c nu/nu mouse xenografted with Hela cells tumor to muscle using Cy5-conjugated compound at 5 mg/kg, iv measured after 30 hrs by fluorescence microscopic analysis; type: ADME, organism-based; settings: in vivo
[22] = Drug uptake in tumor of BALB/c nu/nu mouse xenografted with Hela cells using Cy5-conjugated compound at 5 mg/kg, iv measured after 48 hrs by fluorescence microscopic analysis; type: ADME, organism-based, Neoplasm; settings: in vivo
[23] = Ratio of drug uptake in BALB/c nu/nu mouse xenografted with Hela cells tumor to muscle using Cy5-conjugated compound at 5 mg/kg, iv measured after 6 hrs by fluorescence microscopic analysis; type: ADME, organism-based; settings: in vivo
[24] = Clearance in ICR mouse at 5 mg/kg, iv measured upto 24 hrs by LC/MS/MS analysis; type: ADME, organism-based; settings: in vivo
HeLa [25] = experiment: Induction of cell cycle arrest in human Hela cells assessed as number of cells at G2/M phase at 100 nM after 24 hrs by flow cytometry analysis (reference value: 18%); type: functional
HeLa [26] = experiment: Induction of apoptosis in human Hela cells assessed as dead cells at 100 nM after 24 hrs by fluorescence microscope analysis relative to control; type: functional
HeLa [27] = experiment: Induction of cell cycle arrest in human Hela cells assessed as number of cells at S phase at 100 nM after 24 hrs by flow cytometry analysis (reference value: 7.86%); type: functional
HeLa [28] = experiment: Induction of apoptosis in human Hela cells assessed as dead cells at 100 nM after 48 hrs by fluorescence microscope analysis relative to control; type: functional
HeLa [29] = experiment: Induction of cell cycle arrest in human Hela cells assessed as number of cells at G0/G1 phase at 100 nM after 24 hrs by flow cytometry analysis (reference value: 74.14%); type: functional

O=C1NC(=O)C(=Cc2cn(CCCCc3ccccc3)nc2-c2ccccc2)C(=O)N1
inhibition [1]: Active

O=C1NC(=O)C(=Cc2cn(Cc3ccccc3)nc2-c2ccccc2)C(=O)N1
pIC50 [1]: 4.28

O=C1NC(=O)C(=Cc2cn(CCNC(=O)c3ccccc3)nc2-c2ccccc2)C(=O)N1
inhibition [1]: inactive

CN1C(=O)C(=Cc2cn(-c3ccccc3)nc2-c2ccccc2)C(=O)N(C)C1=O
inhibition [1]: inactive

CCCN1C(=O)C(=Cc2cn(-c3ccccc3)nc2-c2ccccc2)C(=O)N(CCC)C1=O
inhibition [1]: inactive

O=C1NC(=O)C(=Cc2cn(CCNC(=O)C3CCCCC3)nc2-c2ccccc2)C(=O)N1
inhibition [1]: inactive

CC[C@H](C)[C@H](NC(=O)[C@H](C)NC(=O)[C@@H](NC(=O)[C@H](CO)NC(=O)[C@H](Cc1cnc[nH]1)NC(=O)[C@H](CC(C)C)NC(=O)[C@@H]1CCCN1C(C)=O)[C@@H](C)OP(=O)(O)O)C(=O)N[C@@H](Cc1ccc(O)cc1)C(=O)N[C@@H](C)C(N)=O (Ac-PLHS[pT]AIYA-NH2)
pIC50 [1]: 6.64

CS(=O)(=O)c1ccc(C(=O)NCCn2cc(C=C3C(=O)NC(=O)NC3=O)c(-c3ccccc3)n2)cc1
inhibition [1]: inactive

O=C1NC(=O)C(=Cc2cn(Cc3ccc(OC(F)(F)F)cc3)nc2-c2ccccc2)C(=O)N1
inhibition [1]: inactive

O=C1NC(=O)C(=Cc2cn(-c3ccccc3)nc2-c2ccccc2)C(=O)N1
pIC50 [1]: 4.49

CSc1ccc(Cn2cc(C=C3C(=O)NC(=O)NC3=O)c(-c3ccccc3)n2)cc1
inhibition [1]: inactive

CNc1ccc(C(=O)NCCn2cc(C=C3C(=O)NC(=O)NC3=O)c(-c3ccccc3)n2)cc1
Activity (HeLa [2]): 54.47% | Activity (HeLa [3]): 24.6% | Ratio (Homo sapiens): 2 | Ratio [4]: 4.2 | inhibition [5]: 61% | Activity (HeLa [6]): 71.1% | Vdss [7]: 0.31 L/kg | Activity (HeLa [8]): 18.41% | AUC [9]: 11535.29 ng·h/mL | pIC50 [1]: 4.79 | Ratio [10]: 3.9 | AUClast [11]: 11504.31 ng·h/mL | Activity (HeLa [12]): 27.12% | Activity [13]: Non-Toxic | Drug uptake [14]: Active | Activity (HeLa [15]): Active | Drug uptake [16]: Active | inhibition (INH) [17]: Not Active | inhibition [18]: Active | MRT [19]: 0.72 h | t1/2 [20]: 7.73 h | Ratio [21]: 4.11 | Drug uptake [22]: Active | Ratio [23]: 2.1 | CL [24]: 7.17 mL/min/kg

O=C1NC(=O)C(=Cc2cn(Cc3cccc(OC(F)(F)F)c3)nc2-c2ccccc2)C(=O)N1
inhibition [1]: inactive

O=C1C(=Cc2cn(-c3ccccc3)nc2-c2ccccc2)C(=O)N(CCc2ccccc2)C(=O)N1CCc1ccccc1
inhibition [1]: inactive

CC[C@@H]1C(=O)N(C)c2cnc(Nc3ccc(C(=O)NC4CCN(C)CC4)cc3OC)nc2N1C1CCCC1 [BI-2536]
Activity (HeLa [25]): 28.76% | Activity (HeLa [26]): 31.1% | Activity [13]: Non-Toxic | Activity (HeLa [15]): Active | Activity (HeLa [27]): 9.9% | Activity (HeLa [28]): 91.5% | Activity (HeLa [29]): 61.34%

O=C1NC(=O)C(=Cc2cn(CCN3CCOCC3)nc2-c2ccccc2)C(=O)N1
pIC50 [1]: 4.15

Reference: ChEMBL document CHEMBL4699619, “Development of a Polo-like Kinase-1 Polo-Box Domain Inhibitor as a Tumor Growth Suppressor in Mice Models” (J Med Chem, 2020)
